Results: EP0596284A2, “Antimycotic cosmetic and dermatological compositions containing fatty acid esters” (Beiersdorf Aktiengesellschaft, priority 1992, dated 1994)
Read-outs that look alike come from different tables or passages of the source.

Test system: Pityrosporum ovale
Assay: Agar diffusion test, inhibition zones around wells on selective agar plates
Assay type: cell-based
Conditions: for zone of inhibition at 0.5 % / zone of inhibition at 1 % / zone of inhibition at 5 % / zone of inhibition at 10 %: Malassezia furfur, 72 h, read-out: mittlerer Hemmhof-Durchmesser
Experimental: Testlösungen: • TY-Medium 10 g Trypton + 5 g Hefeextrakt + 10 g NaCI, aufgelöst in 1000 ml H20, gepuffert auf pH 7,4 , autoklaviert. • Testverbindung 1: Hexyllaurat • Testverbindung 2: Isopropylstearat • Testverbindung 3: Caprylsäure-/Caprinsäure-Triglycerid • Testverbindung 4: Glyceryllaurat
Pityrosporum ovale von drei Patienten mit Pityrosporum-Follikulitis, Pityriasis versicolor oder seborrhoischem Ekzem wurde in einer Mischung aus 50 % TY-Medium, 30 % Olivenöl und 20 % Tween 80 suspendiert. Die drei verschiedenen Hefestämme wurden in drei parallelen Ansätzen auf einer Selektivagarplatte für pathogene Pilze (Merck AG, Darmstadt) gleichmäßig ausgespatelt. Mit Hilfe steriler Korkbohrer wurden in jede Platte mehrere kreisrunde Vertiefungen gestanzt, in die Vertiefungen mit einem Durchmesser von 5 mm wurden jeweils 25 ul der Testlösungen gegeben. Die Testlösungen stellten 0,5 %-ige, 1,0 %- ige, 2,5 %-ige, 5,0 %-ige und 10,0 %-ige Lösungen der Testsubstanzen in Ethanol dar.
Nach dreistündiger Inkubation bei 37 C wurde das verdunstete Lösungsmittel durch je 25 ul Jojobaöl ersetzt und die Platten anschließend unter Beibehaltung der Wachstumsbedingungen drei Tage inkubiert. Während dieser Zeit diffundierten die Testsubstanzen in den die Vertiefungen umgebenden Nährboden.
Antimycotisch wirksame Testverbindungen zeigten nach dreitägiger Inkubation einen deutlichen konzentrischen Hemmhof um die Vertiefungen. Die Größe dieser Hemmhöfe, wiedergegeben in Tabelle 1, ist bei vergleichbarer Substanzkonzentration ein Maß für die antimycotische Wirksamkeit der Testverbindungen.

[1] = Konz. 0,5 % in Ethanol, 25 ul per 5 mm well, three patient strains, three days at 37 C
[2] = Konz. 1,0 % in Ethanol, 25 ul per 5 mm well, three patient strains, three days at 37 C
[3] = Konz. 5,0 % in Ethanol, 25 ul per 5 mm well, three patient strains, three days at 37 C
[4] = Konz. 10,0 % in Ethanol, 25 ul per 5 mm well, three patient strains, three days at 37 C

## CCCCCCCCCCCC(=O)OCCCCCC [Testlösung 1, Hexyllaurat]
[1]
  zone of inhibition at 0.5 %: 14 mm
[2]
  zone of inhibition at 1 %: 15.5 mm
[3]
  zone of inhibition at 5 %: 18 mm
[4]
  zone of inhibition at 10 %: 20.7 mm

## CCCCCCCCCCCCCCCCCC(=O)OC(C)C [Testlösung 2, Isopropylstearat]
[1]
  zone of inhibition at 0.5 %: 10.7 mm
[2]
  zone of inhibition at 1 %: 14 mm
[3]
  zone of inhibition at 5 %: 18.7 mm
[4]
  zone of inhibition at 10 %: 20.7 mm

## CCCCCCCCCCCC(=O)OCC(O)CO (stereo not shown) [Testlösung 4, Glyceryllaurat]
  zone of inhibition at 0.5 %: 11 mm
  zone of inhibition at 1 %: 14 mm
  zone of inhibition at 5 %: 16.5 mm
  zone of inhibition at 10 %: 16.5 mm

## Caprylsäure-/Caprinsäure-Triglycerid [Testlösung 3]
[1]
  mittlerer Hemmhof-Durchmesser: 9,0 mm
[2]
  mittlerer Hemmhof-Durchmesser: 9,0 mm
[3]
  mittlerer Hemmhof-Durchmesser: 15,0 mm
[4]
  mittlerer Hemmhof-Durchmesser: 17,3 mm
